Data as given in EP2292587A1, “PHARMACEUTICAL COMPOSITION FOR INHIBITING THE TRANSCRIPTION FACTOR INDUCIBLE BY HYPOXIA, MODULATORS OF PATHOLOGICAL PROCESSES OF ANGIOGENESIS, ONCOGENESIS, INFLAMMATION, APOPTOSIS, AND CELLULAR THERAPY” (Fundacion De La Comunidad Valenciana Centro De …, priority 2008, dated 2009).

Tests used:
[1] = test system: epSPCs; assay: proliferation (ATP, CellTiter-Glo) and neurosphere formation of epSPCs; type: cell-based, rat; details: for rates of proliferation (ATP): 500 nM
Experimental: The accumulation of ATP, a metabolite directly related to the increase of metabolic activity and therefore with the proliferative activity, was determined with the commercial CellTiter-Glo® luminescent cell viability kit (Promega, Madison, WI).

[2] = test system: c-FOS; assay: selectivity luciferase assay, Hek 293-TRE-LUC; type: cell-based; details: 0-1 µM, 6 hours
Experimental: The selectivity assays with the active compound FM19G11 were performed in white 96-well plates using the recombinant strains Hek 293-TRE-LUC and Hek 293-CRE-LUC which represent the transcriptional activity of transcription factors of the AP-1 complex. The luciferase assay for measuring transcriptional activity was performed using the kit Bright-Glo™ Luciferase Assay System (Promega, Inc., Madison, WI), following the instructions supplied by the manufacturer and the Hek 293-TRE-LUC and Hek 293-CRE-LUC lines contain the response elements of transcription factors of the AP-1 complex, specifically of c-FOS and JUNB, respectively. The Hek 293-TRE-LUC and Hek 293-CRE-LUC lines were provided by Dr. Rosa Farrás.

[3] = test system: VEGF and COX-2; assay: qPCR of VEGF and COX-2 in dental pulp stem cells; type: cell-based, human; details: 0.5 µM
Excerpt: The culture medium used was Low-Glucose DMEM supplemented with 10% fetal bovine serum. The human dental pulp mesenchymal stem line [Gronthos S, et al., "Postnatal human dental pulp stem cells (DPSCs) in vitro and in vivo" Proc Natl Acad Sci U S A, 2000 Dec 5; 97(25):13625-30.; Gronthos S et al.,." Stem cell properties of human dental pulp stem cells" J Dent Res, 2002 Aug; 81(8):531-5], obtained from human third molars from adults (19-29 years of age), was provided by the Cardioregeneration Dept. of the CIPF. The cells were seeded at a density of 2000 cells/cm^2, and when they reached a 90% confluence they were subcultured again by means of trypsinization.
Total RNA was isolated using the commercial kit RNAeasy (Qiagen) and following the manufacturer's instructions. 1 µg of total RNA of each sample was retrotranscribed using the commercial kit Reverse Transcription Reagent (Applied Biosystem). The quantitative polymerase chain reaction (qPCR) was carried out using Taqman probes and primers designed by Applied Biosystem for hsVEGF (Ref HS00173626_m1), hsCOX-2 (Ref Hs00153133_m1) and hsGAPDH (Ref HS 99999905_m1). […] The expression levels of VEGF and COX-2 were expressed as the increase of Ct with respect to the expression levels of GAPDH (constitutive expression gene): Ct (ΔCt)=Ct (VEGF or […])-Ct (GAPDH). […]

[4] = test system: ATR; assay: activation kinetics of ATR (Western blot), HCT116/p53+/+; type: cell-based, human; details: 0.5 µM, after 1 hour
Excerpt: (§1) To determine the degree of involvement of p53 in the possible effects caused by FM19G11, a HCT116 colon cancer cell line with expression of p53 and the same HCT116 line in which p53 was inactivated by homologous recombination were used (Bunz, F, Dutriaux, A, Lengauer, C, Waldman, T, Zhou, S, Brown, JP et al., (1998) Requirement for p53 and p21 to sustain G2 arrest after DNA damage. Science 282: 1497-501; Bunz, F, Hwang, PM, Torrance, C, Waldman, T, Zhang, Y, Dillehay, L et al., (1999) Disruption of p53 in human cancer cells alters the responses to therapeutic agents. J Clin Invest 104: 263-9.). The HCT116/p53^+/+ and HCT116/p53^-/- cells were exposed to FM19G11 (0.5 µM) at different times, the phosphorylation (activation) pattern of the ATR protein and of p53 which can be phosphorylated by ATR (Tibbetts, RS, Brumbaugh, KM, Williams, JM, Sarkaria, JN, Cliby, WA, Shieh, SY et al., (1999) A role for ATR in the DNA damage-induced phosphorylation of p53. Genes Dev 13: 152-7.), in p53-proficient HCT116 cells, as well as ATR in p53-deficient cells being analyzed (Figure 23). […] This quick activation of ATR coincides with that of p53 in HCT116/p53^+/+ cells after 1 hour of treatment with FM19G11 (0.5 µM), but the activation of p53 remains virtually on the expression of cells without drug, for the different times analyzed.

[5] = test system: medaka (Oryzias latipes) embryos; assay: toxicity on medaka embryos; type: in vivo
Experimental: In the first place, for the zebrafish embryos, various experiments were performed with 10, 6 and 4 embryos per well in a volume of 100 microl, in early (between 1 and 8) and late (more than 20) stages of 1 x Yamamoto buffer, culturing the embryos at 26°C for 24 hours, and the compound FM19G11 was subsequently added at concentrations of 10 microM and 50 microM with negative controls without additives to analyze the endogenous mortality of the embryos and with 1% and 5% DMSO (solvent of the compound) to analyze the mortality of the solvent. In all the cases the solvent induced a high lethality between 60% and 90%.
The same experiments were performed using medaka embryos for which DMSO has not lethal effects at concentrations less than 5%. Six embryos per well, a final volume of 100 µl and independent experiments with embryos in blastula and neurula stages were used.
To prevent the possibility that FM19G11 may not be traversing the protective layer of the embryo (chorion), the compound at a concentration of 0.5 mM was microinjected into the chorionic space (between the embryo and the chorion). Experiment 1: n=15, 20% induced mortality, DMSO control = 0%. The result was the same, no anomaly being observed in the development of the embryo, nor any effect on the viability of the injected embryos. The images of Figure 19 show medaka embryos subjected to the treatment with FM19G11 at 50 microM for 4 days (A) 10 medaka embryos in a well of a multi-well plate; B and C, photos of embryos treated with 50 microM FM19G11 for 1 day; and D a photo of a medaka embryo which was not treated with the compound.

[6] = test system: ATR; assay: activation kinetics of ATR (Western blot), HCT116/p53-/-; type: cell-based, human; details: 0.5 µM, after 1 hour
Excerpt: as §1

Cc1ccc(C(=O)COC(=O)c2cccc(NC(=O)c3ccc([N+](=O)[O-])cc3[N+](=O)[O-])c2)cc1 [FM19G11, 2-oxo-2-(p-tolyl)ethyl 3-((2,4-dinitro)benzamido)benzoate]
rates of proliferation (ATP) ([1]; 48 hours, ~20% O2): increases the rates of proliferation | rates of proliferation (ATP) ([1]; hypoxic conditions (1% O2)): not reproduced | formation of neurospheres ([1]; normoxic conditions (20% O2)): favors the formation of neurospheres | transcriptional levels of Hek 293-TRE-LUC [2]: not affected in any case | increase of both VEGF and COX-2 (mRNA) ([3]; hypoxic conditions, 6 and 18 hours): inhibited | expression levels of VEGF and COX-2 ([3]; normoxic conditions): did not cause any effect | phosphorylation of ATR [4]: quick increase | induced mortality ([5]; 0.5 mM microinjected into the chorionic space, n=15): 20% | viability of the embryos ([5]; 10 microM and 50 microM in the well): does not affect the viability | lethality ([5]; 10 microM and 50 microM in the well, blastula and neurula stages): no significant lethality | phosphorylation of ATR [6]: quick increase
